Measured values: paper PMC4445002, “Efficient inhibition of tumor angiogenesis and growth by a synthetic peptide blocking S100A4-methionine aminopeptidase 2 interaction” (Molecular Therapy. Methods & Clinical Development, 2015)

Experiments:
Format in all cases: cell-based, mouse
[1] = test system: angiogenesis-related genes in MSS31 cells; experiment: Expression of angiogenesis-related genes by qRT-PCR; conditions: atelocollagen complex, retn, fgf18, aqp1, map3k5, thy1, foxo6, hs6st1, cdkn1a, thbs1, spry4
Procedure: Therefore, an alternative action mechanism of the NBD peptide would be the modulation of the expression of these angiogenesis-related genes.
Caspase3/7 assays was performed with Apo-ONE Caspase-3/7 Assay
Reagent (Promega). No significant changes are observed.
F i g . […]
PC-3M-Luc cells were treated with atelocollagen alone or the NBD peptide/atelocollagen complex in vitro, and their growth rate was monitored.
The values represent cell growth rate relative to that of control cells that is […]
MSS31 cells were incubated with the peptide/atelocollagen complexes.
Isolation of total RNA and subsequent qRT-PCR analysis were carried out as described previously (30). The GAPDH gene was used as an internal control.
(a) Proangiogenic genes in NBD and CBD peptides-treated cells. (b)
Antiangiogenic genes in NBD and CBD peptides-treated cells.

[2] = test system: NMIIA in MSS31 cells; experiment: NMIIA filament assembly and S100A4-NMIIA colocalization by immunofluorescence; conditions: atelocollagen complex, 5 μg/well, 18 hours
Procedure: (§1) Figure 6 Stimulation of NMIIA phosphorylation and filament assembly by the NBD peptide. MSS31 cells incubated with atelocollagen alone or the peptide/atelocollagen complexes were subjected to western blot analysis and immunofluorescent staining. (a) Western blot analysis of NMIIA phosphorylation. Total cellular proteins were subjected to immunoblot analysis. The band intensity of p-NMIIA relative to that of total NMIIA was measured using ImageJ software and normalized to control cells. (b) NMIIA assembly. MSS31 cells were simultaneously incubated with rabbit polyclonal anti-S100A4 antibody and mouse monoclonal anti-NMIIA antibody followed by Alexa Fluor 488-conjugated goat antirabbit IgG and Alexa Fluor 594-conjugated goat antimouse IgG. Nuclei were stained with DAPI. Scale bars: 50 μm. (c) Blockade of S100A4-NMIIA interaction by the NBD peptide. MSS31 cells were immunostained as in a. White arrows and yellow arrows indicate colocalized areas and independently localized areas of S100A4 and NMIIA, respectively. Bars: 20 μm. TEXT PRINTED IN THE PICTURE: (a) NBD: p-NMIIA/total NMIIA: 1.78 | (a) CBD: p-NMIIA/total NMIIA: 0.66
MSS31 cells cultured in six-well plates were incubated with 5 μg/well of the NBD or the CBD peptide/atelocollagen complex or atelocollagen alone for 18 hours in Culture Slides (4 wells, BD Falcon) and were washed three times with DPBS and fixed for 10 minutes at 4 °C with 4% formaldehyde in DPBS. After permeabilizing with 0.5% Triton X-100 in DPBS for 4 minutes, the cells were treated with 3% bovine serum albumin in DPBS containing 0.1% glycine for 1 hour to block nonspecific binding sites. After washing with DPBS, the cells were incubated for 1 hour with primary antibodies, rinsed, and then stained with secondary antibodies. The primary antibodies used were polyclonal anti-S100A4, monoclonal anti-NMIIA antibody, monoclonal antivinculin antibody and polyclonal anti-integrin β1 antibody. The secondary antibody was Alexa Fluor 488-conjugated goat antirabbit IgG (Invitrogen) or Alexa Fluor 594-conjugated goat antimouse IgG (Invitrogen). […]

[3] = test system: NMIIA (Ser1943) in MSS31 cells; experiment: NMIIA Ser1943 phosphorylation by western blot; conditions: 5 μg/well, 18 hours
Procedure: as §1, with “0.66 […]” for “0.66”

[4] = test system: MSS31 cells; experiment: MSS31 cell growth; conditions: atelocollagen complex; relative to control cells set to 100%; n = 4, P < 0.01
Procedure: Figure 8 Inhibition of cell cycle progression and cell growth by the NBD peptide. MSS31 cells were treated with atelocollagen alone or the NBD or the CBD peptide/atelocollagen complex in vitro. (a) Cell cycle progression. The cells were labeled with BrdU and then subjected to flow cytometry. (b) Cell growth. The values represent cell growth rate relative to that of control cells that is set to 100%. The NBD peptide inhibited the growth of MSS31 cells compared to the control cells (atelocollagen alone). Data represent the mean ± SD (n = 4), P < 0.01. TEXT PRINTED IN THE PICTURE: (a) NBD: S:13.2%; G1:70.7%; G2/M:9.6% | (a) CBD: S:32.1%; G1:55.4%; G2/M:8.9% | (a) peptide(−): S:36.7%; G1:49.6%; G2/M:9.7%

For “NBD: N-terminal 39 amino acid sequence of SBD, from Arg170 to Ileu208; corresponding to MetAP2 (170–208) (REAAEAHRQVRKYVMSWIKPGMTMIEICEKLEDCSRKLI)”, the “expression of angiogenesis-related genes” value [1] was “could not detect any alteration of the expression of these genes”, the NMIIA filament assembly [2] was “stimulated filament assembly in MSS31 cells” and the “colocalization of S100A4 and NMIIA” value [2] was “the majority of S100A4 was not colocalized with NMIIA filaments”. The “distribution of NMIIA filaments” value [2] was “evenly distributed throughout the cells and showed no polarization”, the “Ser1943 phosphorylation of NMIIA” value ([3]; atelocollagen complex) was “enhanced Ser1943 phosphorylation of NMIIA” and the “p-NMIIA/total NMIIA” value ([3]; band intensity, normalized to control cells (atelocollagen alone)) was 1.78. For the same substance, the “growth of MSS31 cells” value [4] was “significantly inhibited the growth of MSS31 cells”.
